The source of these data is US20210169953A1, “COMPOSITION FOR TYPE IV ALLERGY” (SONE FARM CO., LTD, priority 2018, published 2021).

Several values for one entry are separate records, joined by “and”; a condition that tells them apart may be missing. Identical values can stand only once.

This experiment deals with picryl chloride-induced mouse contact dermatitis model. The experiment can be described thus: Suppression action on mouse contact dermatitis model by application on the auricle (auricle thickness). The class given is in vivo, mouse (male BALB/cA Jcl). Here is the method: From the supernatant of a culture broth obtained by cultivating the strain IJH-SONE68 in modified-SDM medium, exopolysaccharides produced by the strain were purified by the method disclosed in Example 2 to be supplied to experiments (1 mg/mL). The same concentration was used for a dipotassium glycyrrhizinate aqueous solution used as a control of an existing anti-inflammatory drug.
The mice used were male BALB/cA Jcl mice (7-week old at the time of arrival, CLEA Japan, Inc.). Five mice were housed in a breeding cage and bred in an animal breeding room in which environment was adjusted to temperature of 20 to 26° C., humidity of 40 to 60%, and lighting time of 12 hours (8:00 to 20:00). The mice were allowed to freely ingest solid feed MF (Oriental Yeast Co., Ltd.). In addition, with regard to a drinking water, the mice were allowed to freely ingest a purified water.
After carried in the cage, the mice were acclimated for 7 days. […]
On Day 6, the thickness of right auricle of the mice was measured in advance with a caliper, and then an allergic reaction was induced by applying 20 μL of a 1 w/v % picryl chloride solution on the front and back of the right auricle. […] Eighteen hours later (Day 7), the thickness of the auricle was measured, and the difference before and after the induction (A auricle thickness [mm]) was compared among the groups. […] Tukey's test or t test by Welch's method was used for a significant difference test among the groups, and it was determined that there was a significant difference when a risk factor (p value) was less than 0.05.

As for `CC1(C)[C@@H](O[C@H]2O[C@H](C(=O)[O-])[C@@H](O)[C@H](O)[C@H]2O[C@@H]2O[C@H](C(=O)[O-])[C@@H](O)[C@H](O)[C@H]2O)CC[C@]2(C)[C@H]3C(=O)C=C4[C@@H]5C[C@@](C)(C(=O)O)CC[C@]5(C)CC[C@@]4(C)[C@]3(C)CC[C@@H]12.[K+].[K+]` [dipotassium glycyrrhizinate], for the setting “application, p<0.1”, the “Increase in auricle thickness due to inflammation vs control group (FIG. 7, Tukey test)” value is listed as “tended to be suppressed”. Besides, the “Increased amount of auricle thickness, Average” value (group average, 20 μL of 1 mg/mL sample applied on right auricle 2 h after induction, measured 18 h later, control 0.28) came out at 0.184 mm. The “Increased amount of auricle thickness, each mouse” value (individual mice, 20 μL of 1 mg/mL sample applied on right auricle 2 h after induction, measured 18 h later) is 0.20 mm and 0.06 mm and 0.22 mm (3×).
